Where a SMILES comes first, the peptide text is derived from it. Bridges are numbered along the chain shown (N, C = ends). [ ]: non-standard residue; d: D form. The star is where a group is joined. hPhe(3-Cl-4-CF3) = N[C@@H](CCc1ccc(C(F)(F)F)c(Cl)c1)C(=O)O; NPrPhe(4-CF3) = CCCN[C@@H](Cc1ccc(C(F)(F)F)cc1)C(=O)O; NEtPhe(4-CF3) = CCN[C@@H](Cc1ccc(C(F)(F)F)cc1)C(=O)O; hPhe(3,4-Cl2) = N[C@@H](CCc1ccc(Cl)c(Cl)c1)C(=O)O; NMeGly(cPent) = CN[C@H](C(=O)O)C1CCCC1; Hyp = O=C(O)[C@@H]1C[C@@H](O)CN1; NMeD = CN[C@@H](CC(=O)O)C(=O)O; NMeL = CN[C@@H](CC(C)C)C(=O)O; Ac6c = NC1(C(=O)O)CCCCC1; Morpholide = C1CN(*)CCO1; Ac5c = NC1(C(=O)O)CCCC1; Ac3c = NC1(C(=O)O)CC1; Aib = CC(C)(N)C(=O)O; Sar = CNCC(=O)O
Experiments:
[1] = molecular target: GDP-bound HRAS wild-type protein (Homo sapiens, UniProt P01112); test: Binding to HRAS by surface plasmon resonance (SPR), Single Cycle Kinetics; conditions: KD ratio HRAS/KRAS, SPR
GDP-bound HRAS wild-type protein, sequence (P01112 whole entry): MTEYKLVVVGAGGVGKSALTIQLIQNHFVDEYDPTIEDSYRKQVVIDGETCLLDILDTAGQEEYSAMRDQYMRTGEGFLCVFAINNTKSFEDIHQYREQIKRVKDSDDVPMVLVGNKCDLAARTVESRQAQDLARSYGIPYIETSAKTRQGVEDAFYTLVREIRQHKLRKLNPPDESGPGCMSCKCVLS

[2] = molecular target: GDP-bound NRAS wild-type protein (Homo sapiens, UniProt P01111); test: Binding to NRAS by surface plasmon resonance (SPR), Single Cycle Kinetics; conditions: KD ratio NRAS/KRAS, SPR
GDP-bound NRAS wild-type protein, sequence (P01111 whole entry): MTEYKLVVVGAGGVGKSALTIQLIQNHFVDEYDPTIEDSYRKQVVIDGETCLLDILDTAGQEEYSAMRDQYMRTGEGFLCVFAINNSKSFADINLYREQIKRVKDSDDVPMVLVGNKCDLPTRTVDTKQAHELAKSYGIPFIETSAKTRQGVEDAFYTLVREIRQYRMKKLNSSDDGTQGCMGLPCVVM

Compound | HRAS/KRAS (ratio of KD for GDP-bound HRAS wild-type to KD for KRAS) [1] | NRAS/KRAS (ratio of KD for GDP-bound NRAS wild-type to KD for KRAS) [2]
CCCN1C(=O)CN(C)C(=O)CN(C)C(=O)[C@H]([C@@H](C)CC)NC(=O)[C@H](CC(C)C)N(C)C(=O)C[C@@H](C(=O)N2CCOCC2)N(C)C(=O)[C@H](C2CCCC2)N(C)C(=O)C2(CC2)NC(=O)[C@@H]2CCCN2C(=O)[C@H](CCc2ccc(C(F)(F)F)c(Cl)c2)NC(=O)CN(C)C(=O)[C@@H]1Cc1ccc(C(F)(F)F)cc1 [PP0229] ([NMeL]I[Sar][Sar][NPrPhe(4-CF3)][Sar][hPhe(3-Cl-4-CF3)]P[Ac3c][NMeGly(cPent)][NMeD]-Morpholide; lactam N-11) | B (a compound having 3 or more and less than 10 is denoted as B) | B (a compound having 3 or more and less than 10 is denoted as B)
CCCN1C(=O)CN(C)C(=O)CN(C)C(=O)[C@H]([C@@H](C)CC)NC(=O)[C@H](CC(C)C)N(C)C(=O)C[C@@H](C(=O)N2CCOCC2)N(C)C(=O)[C@H](C2CCCC2)N(C)C(=O)C(C)(C)NC(=O)[C@@H]2CCCN2C(=O)[C@H](CCc2ccc(C(F)(F)F)c(Cl)c2)NC(=O)CN(C)C(=O)[C@@H]1Cc1ccc(C(F)(F)F)cc1 [PP0230] ([NMeL]I[Sar][Sar][NPrPhe(4-CF3)][Sar][hPhe(3-Cl-4-CF3)]P[Aib][NMeGly(cPent)][NMeD]-Morpholide; lactam N-11) | C (A compound having a KD ratio of 0.1 or more and less than 3 is denoted as C) | B (a compound having 3 or more and less than 10 is denoted as B)
CCCN1C(=O)CN(C)C(=O)CN(C)C(=O)[C@H]([C@@H](C)CC)NC(=O)[C@H](CC(C)C)N(C)C(=O)C[C@@H](C(=O)N2CCOCC2)N(C)C(=O)[C@H](C2CCCC2)N(C)C(=O)C2(CCCCC2)NC(=O)[C@@H]2CCCN2C(=O)[C@H](CCc2ccc(C(F)(F)F)c(Cl)c2)NC(=O)CN(C)C(=O)[C@@H]1Cc1ccc(C(F)(F)F)cc1 [PP0231] ([NMeL]I[Sar][Sar][NPrPhe(4-CF3)][Sar][hPhe(3-Cl-4-CF3)]P[Ac6c][NMeGly(cPent)][NMeD]-Morpholide; lactam N-11) | C (A compound having a KD ratio of 0.1 or more and less than 3 is denoted as C) | B (a compound having 3 or more and less than 10 is denoted as B)
CCCN1C(=O)CN(C)C(=O)CN(C)C(=O)[C@H]([C@@H](C)CC)NC(=O)[C@H](CC(C)C)N(C)C(=O)C[C@@H](C(=O)N2CCOCC2)N(C)C(=O)[C@H](C2CCCC2)N(C)C(=O)C2(CCCC2)NC(=O)[C@@H]2CCCN2C(=O)[C@H](CCc2ccc(Cl)c(Cl)c2)NC(=O)CN(C)C(=O)[C@@H]1Cc1ccc(C(F)(F)F)cc1 [PP0232] ([NMeL]I[Sar][Sar][NPrPhe(4-CF3)][Sar][hPhe(3,4-Cl2)]P[Ac5c][NMeGly(cPent)][NMeD]-Morpholide; lactam N-11) | B (a compound having 3 or more and less than 10 is denoted as B) | B (a compound having 3 or more and less than 10 is denoted as B)
CCCN1C(=O)CN(C)C(=O)CN(C)C(=O)[C@H]([C@@H](C)CC)NC(=O)[C@H](CC(C)C)N(C)C(=O)C[C@@H](C(=O)N2CCOCC2)N(C)C(=O)[C@H](C2CCCC2)N(C)C(=O)C2(CCCC2)NC(=O)[C@@H]2C[C@@H](OCC)CN2C(=O)[C@H](CCc2ccc(C(F)(F)F)c(Cl)c2)NC(=O)CN(C)C(=O)[C@@H]1Cc1ccc(C(F)(F)F)cc1 [PP0233] ([NMeL]I[Sar][Sar][NPrPhe(4-CF3)][Sar][hPhe(3-Cl-4-CF3)][Hyp](Et)[Ac5c][NMeGly(cPent)][NMeD]-Morpholide; lactam N-11) | C (A compound having a KD ratio of 0.1 or more and less than 3 is denoted as C) | B (a compound having 3 or more and less than 10 is denoted as B)
CC[C@H](C)[C@@H]1NC(=O)[C@H](CC(C)C)N(C)C(=O)C[C@@H](C(=O)N2CCOCC2)N(C)C(=O)[C@H](C2CCCC2)N(C)C(=O)C2(CC2)NC(=O)[C@@H]2CCCN2C(=O)[C@H](CCc2ccc(C(F)(F)F)c(Cl)c2)NC(=O)CN(C)C(=O)[C@H](Cc2ccc(C(F)(F)F)cc2)N(CC)C(=O)CN(C)C(=O)CN(C)C1=O [PP0234] ([NMeL]I[Sar][Sar][NEtPhe(4-CF3)][Sar][hPhe(3-Cl-4-CF3)]P[Ac3c][NMeGly(cPent)][NMeD]-Morpholide; lactam N-11) | C (A compound having a KD ratio of 0.1 or more and less than 3 is denoted as C) | B (a compound having 3 or more and less than 10 is denoted as B)
CC[C@H](C)[C@@H]1NC(=O)[C@H](CC(C)C)N(C)C(=O)C[C@@H](C(=O)N2CCOCC2)N(C)C(=O)[C@H](C2CCCC2)N(C)C(=O)C(C)(C)NC(=O)[C@@H]2CCCN2C(=O)[C@H](CCc2ccc(C(F)(F)F)c(Cl)c2)NC(=O)CN(C)C(=O)[C@H](Cc2ccc(C(F)(F)F)cc2)N(CC)C(=O)CN(C)C(=O)CN(C)C1=O [PP0235] ([NMeL]I[Sar][Sar][NEtPhe(4-CF3)][Sar][hPhe(3-Cl-4-CF3)]P[Aib][NMeGly(cPent)][NMeD]-Morpholide; lactam N-11) | C (A compound having a KD ratio of 0.1 or more and less than 3 is denoted as C) | B (a compound having 3 or more and less than 10 is denoted as B)
CC[C@H](C)[C@@H]1NC(=O)[C@H](CC(C)C)N(C)C(=O)C[C@@H](C(=O)N2CCOCC2)N(C)C(=O)[C@H](C2CCCC2)N(C)C(=O)C2(CCCCC2)NC(=O)[C@@H]2CCCN2C(=O)[C@H](CCc2ccc(C(F)(F)F)c(Cl)c2)NC(=O)CN(C)C(=O)[C@H](Cc2ccc(C(F)(F)F)cc2)N(CC)C(=O)CN(C)C(=O)CN(C)C1=O [PP0236] ([NMeL]I[Sar][Sar][NEtPhe(4-CF3)][Sar][hPhe(3-Cl-4-CF3)]P[Ac6c][NMeGly(cPent)][NMeD]-Morpholide; lactam N-11) | C (A compound having a KD ratio of 0.1 or more and less than 3 is denoted as C) | B (a compound having 3 or more and less than 10 is denoted as B)
CC[C@H](C)[C@@H]1NC(=O)[C@H](CC(C)C)N(C)C(=O)C[C@@H](C(=O)N2CCOCC2)N(C)C(=O)[C@H](C2CCCC2)N(C)C(=O)C2(CCCC2)NC(=O)[C@@H]2CCCN2C(=O)[C@H](CCc2ccc(Cl)c(Cl)c2)NC(=O)CN(C)C(=O)[C@H](Cc2ccc(C(F)(F)F)cc2)N(CC)C(=O)CN(C)C(=O)CN(C)C1=O [PP0237] ([NMeL]I[Sar][Sar][NEtPhe(4-CF3)][Sar][hPhe(3,4-Cl2)]P[Ac5c][NMeGly(cPent)][NMeD]-Morpholide; lactam N-11) | C (A compound having a KD ratio of 0.1 or more and less than 3 is denoted as C) | B (a compound having 3 or more and less than 10 is denoted as B)
